Data from patent publication US5447957A, “Anti-inflammatory compounds” (SmithKline Beecham Corp., priority 1994, dated 1995).
Where two headings read alike, the source gives them in different places. Blank lines part the entries; values can stand above or below the compound they belong to.

Tests used:
CoA-IT = test: Assay (b): CoA-IT activity in U937 cell microsomes; assay type: biochemical, human; details: for inhibition of CoA-IT activity in the microsomal CoA-IT assay: generally at 50 μM or less
From the text: Assay (b): CoA-IT Activity
The following is a method to measure CoA-IT activity and the effects of compounds on CoA-IT activity. The assay is based upon mixing cellular material containing CoA-IT activity with a stable lyso phospholipid such as […] and measuring the production of phospholipid product such as […] occurring in the absence of added CoA or CoA-fatty acids.
Any inflammatory cell that contains high levels of CoA-IT activity can be used, such as neutrophils, macrophages or cell lines such as U937 cells. […] Cells were grown without differentiation (basal state) by any agent, such as dimethyl sulfoxide. As used herein, "inflammatory cells" include, but are not limited to neutrophils, macrophages, monocytes, lymphocytes, eosinophils, basophils, and mast cells.
Microsomes were prepared using standard techniques. In this case, cells were washed with a buffer of 250 mM sucrose, 10 mM Tris, 1 mM EGTA, 1 mM MgCl2, pH 7.4 and ruptured by N2 cavitation (750 psi, 10 minutes). The ruptured cells were centrifuged 1000× g, 5 minutes. The resulting supernatant was centrifuged at 20,000×g,~20 minutes. Microsomes were prepared from this supernatant by centrifugation at 100,000× g, 60 minutes. The resulting pellet was washed once with assay buffer (150 mM NaCl, 10 mM Na2 KPO4, 1 mM EGTA, pH 7.4), recentrifuged and the pellet resuspended in assay buffer (4-20 mg protein/ml) and was stored at -80° C. until assayed.
CoA-IT activity was measured in 1.5 ml centrifuge tubes in a total volume of 100 ul. Microsomes were diluted in assay buffer to the desired protein concentration (6-20 ug/tube). The reaction was initiated by addition of [3H] 1-alkyl-2-lyso-sn-glycero-3-phosphocholine (GPC)(~0.1 uCi/tube) and 1 μM final cold 1-alkyl-2-lyso-GPC in assay buffer with 0.25 mg/ml fatty acid-poor bovine serumalbumin (BSA) (Calbiochem, La Jolla, Calif.). [3H]1-alkyl-2-lyso-GPC, approximately 50 Ci/mmol, was from NEN-Dupont (Boston, Mass.) and cold 1-alkyl-2-lyso-GPC was from Biomol (Plymouth Meeting, Penn.). Microsomes were pretreated with desired agents for the desired time (10 minutes) before the addition of [3H]1-alkyl-2-lyso-GPC. The reaction was run for the desired time (10 minutes) at 37° C. The reaction was stopped and the lipids extracted by addition of 100 ul of chloroform:methanol (1:2, v/v) followed by 100 ul of chloroform and 100 ul of 1M KCI. The samples were vortexed and centrifuged at high speed in a microfuge for 2-3 minutes. An aliquot of the chloroform-extracted materials were separated, usually by TLC in chloroform/methanol/acetic acid/water (50:25:8:4, v/v), visualized by radioscanning (Bioscan) and the product, [3H] 1-alkyl-2-acyl-GPC, was scraped and quantified by liquid scintillation spectroscopy. […] Other methods can be used to separate substrate from product, including but not limited to column chromatography, affinity chromatography and post reaction derivitization.

human monocytes = test: Assay (f): stimulated eicosanoid (PGE2, LTC4) release by human monocytes; assay type: cell-based; details: Monocyte, 0.25 h, A23187 1 μM, 15 min
Procedure: Assay (f): Measurement of stimulated eicosanoid release by human monocytes.
Leukocyte-rich leukopaks obtained from Biological Specialties (Lansdale, Pa.) were collected from male volunteers who were not taking anti-inflammatory drugs. Leukopaks were centrifuged (90× g for 15 min) twice to remove the platelet-rich plasma. The cell pellet was washed by centrifugation and resuspended in HBSS without Ca^2+ or Mg^2+. Histopaque 1077 was layered under the cell suspension and centrifuged at 400× g for 30 min to obtain the buffy coat. The interfacial buffy coat, containing monocytes and lymphocytes, was removed and saved. The buffy coat was washed twice with HBSS without Ca^2+ or Mg^2+ by centrifugation. The cell pellet (4-6×10^8 cells/30 mls) was resuspended in iso-osmotic media (RPMI-1640, 10% heat inactivated fetal bovine serum (FBS), 0.2 mM L-glutamine, 2.5 mM HEPES) and layered over an equal volume of 46% Percol mixture (10X PBS/Percol; 9.25/0.75) and 54% iso-osmotic media and centrifuged for 30 min at 1000× g (Marshall and Roshak, Biochem. Cell Biol. 71: 331-339, 1993). The monocyte population located at the interface of the Percoll gradient was removed and washed twice in HBSS without Ca^2+ or Mg^2+.
Monocytes (5×10^6 /ml) were incubated as a suspension in serum-free RPMI- 1640 medium containing the vehicle DMSO (<1%) or drug for 30 min at […] after which vehicle or stimuli was added for the indicated time. The stimulating agent is solubilized in DMSO and appropriate vehicle controls were included in all experiments. The amount of stimuli was chosen from the linear portion of a concentration versus product curve usually representing 60-80% maximal stimulation over the indicated incubation time at 37° C. (A23187, 1 μM,(15 min). The reaction was terminated by reduction of pH through addition of citric acid and centrifugation (10 min, 400× g, 4° C.). Cell viability was monitored before and after experiments using trypan blue exclusion. The cell-free media was decanted and stored at -70° C. until analyzed. Prostaglandin E2 and LTC4 were directly measured in cell-free media using enzyme immunoassay (EIA) kits purchased from Caymen Chemical Co. (Ann Arbor, Mich.). Sample or standard dilutions were made with appropriate media and analyzed in triplicate. Results were obtained by extrapolation from a standard curve prepared in the media and expressed as pg or ng/ml of sample.

[1] = system: TPA-induced Mouse Ear Inflammation; test: Assay (g): TPA-induced Mouse Ear Inflammation (ear edema and MPO); assay type: in vivo; details: topical; doses dexamethasone 0.2, scalaradial 0.1, WY 50,295 0.3 (unit not given)
From the text: The ability of compounds that inhibit CoA-IT and/or PLA2 to affect in vivo inflammatory responses may be assessed. Inflammatory responses are induced in the mouse ear by the topical application of a pro-inflammatory agent, such as 12-0-tetradecanoylphorbol 13-acetate (assay g). This produces an edematous response, as measured by increases in ear thickness, as well as increased inflammatory cellular infiltrate, as measured by increases in myeloperoxidase activity (as described in the methods). To further validate the mechanism of action inflammation induced by the direct adminstration of arachidonic acid can be used. In this case compounds altering arachidonic acid mobilization or liberation should be with our effect.
(§1) Male Balb/c inbred mice were obtained from Charle River Breeding Laboratories (Kingston, N.Y.). Within a single experiment mice (22-25 g) were age-matched. These in vivo experiments typically involved use of 5-6 animals/group.
TPA (12-0-tetradecanoylphorbol 13-acetate) (Sigma Chemical Company) in acetone ([…]) was applied to the inner and outer surfaces of the left ear of BALB/c male mice. The thickness of both ears was then measured with a dial micrometer (Mitutoyo, Japan) at both 2 and 4 hours after treatment, and the data expressed as the change in thickness (10^-3 cm) between treated and untreated ears. […] After measuring the edema, the inflammed left ears were removed and stored at -70° C. until they were assayed for MPO (myeloperoxidase) activity where appropriate.
(§2) On the day of the assay, partially thawed ear tissues were minced and then homogenized (10% w/v) with a Tissumizer homogenizer (Tekmar Co.) in 50 mM phosphate buffer (pH 6) containing 0.5% HTAB. The tissue homogenates were taken through three cycles of freeze-thaw, followed by brief sonication (10 sec). The method of Bradley et al. was used with modifications as described. The appearance of a colored product from the MPO-dependent reaction of o-dianisidine (0.167 mg/ml; Sigma) and hydrogen peroxide (0.0005%; Sigma) was measured spectrophotometrically at 460 nm. Supernatant MPO activity was quantified kinetically (change in absorbance measured over 3 min, sampled at 15-sec intervals) using a Beckman DU-7 spectrophotometer and a Kinetics Analysis package (Beckman Instruments, Inc.). One unit of MPO activity is defined as that degrading one micromole of peroxide per minute at 25° C.
Statistical analysis was done using Student's "t" test. The ED50 are values which cause a 50% inhibition of the inflammatory response and are calculated by regression analysis of the dose response data.

[2] = system: Arachidonic acid induced ear inflammation; test: Assay (h): Arachidonic acid induced ear inflammation (ear edema and MPO); assay type: in vivo, mouse; details: topical; doses dexamethasone 0.2, scalaradial 0.1, WY 50,295 0.3 (unit not given)
Procedure: as §1
as §2, with “The appearance of a colored product from the MPO-dependent reaction of o-dianisidine (0.167 mg/ml; Sigma) and hydrogen peroxide (0.0005%; Sigma) was measured spectrophotometrically at 460 nm.” left out
Arachidonic acid is dissolved in acetone (1 mg/ear) to the left ear of BALB/c male mice. The thickness of both ears was measured with a constant pressure thickness guage 1 hour after treatment and the data expressed as the change in thickness between treated and untreated ears. Test compounds or vehicle are given at the time of AA applciation. The inflammatory cell infiltration is measured by MPO activity as described above in the TPA ear edema assay. After the edema measurements are made, the inflamed ears are removed and assayed for MPO activity.

- inhibition of CoA-IT activity in the microsomal CoA-IT assay (CoA-IT): inhibit CoA-IT activity
- IC50 (human monocytes; read-out: IC50 for LTC4 release): 300 nM
- IC50 (human monocytes; read-out: IC50 of PGE2 release): > 3000 nM
Compound: O=C(Nc1ccc(Br)cc1)Nc1cc(C(F)(F)F)ccc1Oc1ccccc1C(=O)O [Example 1, 2-[2-[3-(4-Bromophenyl)ureido]-4-(trifluoromethyl)phenoxy]benzoic acid]

- inhibition of CoA-IT activity in the microsomal CoA-IT assay (CoA-IT): inhibit CoA-IT activity
Compound: CCCCCCCCNC(=O)Nc1cc(C(F)(F)F)ccc1Oc1ccccc1C(=O)O [2-[2-[3-(Octyl)ureido]-4-trifluoromethylphenoxy]benzoic acid]

Compound: COc1ccc2cc([C@H](C)C(=O)O)ccc2c1 [naproxen]
- effect on CoA-IT activity (CoA-IT; at concentrations up to 100 μM): no effect

Compound: C[C@H](C(=O)O)c1ccc2cc(OCc3ccc4ccccc4n3)ccc2c1 [WY 50,295]
- TPA % change in edema [1]: -18%
- AA % change in edema [2]: -50%
- change in MPO for AA [2]: -90

Compound: CCN(CC)CCCC(C)Nc1c2ccc(Cl)cc2nc2ccc(OC)cc12 (centres unmarked) [quinacrine]
- effect on CoA-IT activity (CoA-IT; at concentrations up to 500 μM): no effect

Compound: Fc1ccc(-c2nc3n(c2-c2ccncc2)CCS3)cc1 [6-(4'-Fluorophenyl)-5-(4-pyridyl)-2,3-dihydroimidzo-[2,1-b]thiazole]
- effect on CoA-IT activity (CoA-IT; at concentrations up to 100 μM): no effect

- inhibition of CoA-IT activity in the microsomal CoA-IT assay (CoA-IT): inhibit CoA-IT activity
Compound: CCC(C)(C)c1ccc(Oc2ccc(C(F)(F)F)cc2NC(=O)Nc2cc(C(F)(F)F)cc(C(F)(F)F)c2)c(C(=O)O)c1 [Example 5, 2-[2-[3-[3,5-Bis (trifluoromethyl)phenyl]ureido]-4-trifluoromethylphenoxy]-5-(1,1,-dimethylpropyl)benzoic acid]

Compound: O=S1(=O)CCn2c1nc(-c1ccc(F)cc1)c2-c1ccncc1 [6-(4'-Fluorophenyl)-5-(4-pyridyl)2,3-dihydroimidzo-[2,1-b]thiazole-dioxide]
- effect on CoA-IT activity (CoA-IT; at concentrations up to 100 μM): no effect

Compound: Cc1cc(C(C)(C)C)c(O)c(C(C)(C)C)c1 [BHT]
- effect on CoA-IT activity (CoA-IT; at concentrations up to 100 μM): no effect

Compound: C[C@@H]1C[C@H]2[C@@H]3CCC4=CC(=O)C=C[C@]4(C)[C@@]3(F)[C@@H](O)C[C@]2(C)[C@@]1(O)C(=O)CO [dexamethasone]
- TPA % change in edema [1]: -50%
- change in MPO for TPA model [1]: -54
- AA % change in edema [2]: -10%
- change in MPO for AA [2]: 0

- inhibition of CoA-IT activity in the microsomal CoA-IT assay (CoA-IT): inhibit CoA-IT activity
Compound: CC(C)(C)CC(C)(C)c1ccc(Oc2ccc(C(F)(F)F)cc2NC(=O)Nc2cc(C(F)(F)F)cc(C(F)(F)F)c2)c(C(=O)O)c1 [Example 4, 2-[2-[3-[3,5-Bis (trifluoromethyl)phenyl]ureido]-4-trifluoromethylphenoxy]-5-(1,1,3,3-tetramethylbutyl)benzoic acid]

- inhibition of CoA-IT activity in the microsomal CoA-IT assay (CoA-IT): inhibit CoA-IT activity
Compound: COC(=O)c1ccccc1Oc1ccc(C(F)(F)F)cc1NC(=O)Nc1cc(C(F)(F)F)cc(C(F)(F)F)c1 [Example 8, Methyl 2-[2-[3-[3,5-Bis(trifluoromethyl)phenyl]ureido]-4-trifluoromethylphenoxy]benzoate]

Compound: CC(=O)O[C@H]1C[C@@H]2[C@@]3(C)CCCC(C)(C)[C@@H]3CC[C@@]2(C)[C@@H]2CC=C(C=O)[C@H](C=O)[C@@]12C [scalaradial]
- AA % change in edema [2]: -11%

Compound: COc1ccc2c(c1)c(CC(=O)O)c(C)n2C(=O)c1ccc(Cl)cc1 [indomethicin]
- effect on CoA-IT activity (CoA-IT; at concentrations up to 100 μM): no effect

Compound: CN(C)CCC=C1c2ccccc2COc2ccccc21 [Doxepine]
- effect on CoA-IT activity (CoA-IT; at concentrations up to 100 μM): did not inhibit

Compound: COc1cccc2c1cc([N+](=O)[O-])c1c(C(=O)O)cc3c(c12)OCO3 [aristolochic acid]
- effect on CoA-IT activity (CoA-IT; at concentrations up to 500 μM): no effect
